According to patent US12534449B2, “Stable crystalline hydrate of clazosentan disodium salt” (Idorsia Pharmaceuticals Ltd, priority 2020, dated 2026):
Where a name gives a salt, the structure may show the parent alone.

Legend:
[1] = Solubility of COMPOUND in water; conditions: room temperature
[2] = Gravimetric vapor sorption (GVS) analysis; format: physicochemical; conditions: for behaviour of water content with relative humidity (GVS): humidity scan; for water content (GVS) in equivalents of water: equilibrium / final water content
Method: Gravimetric vapor sorption analysis of form C was performed on a Hiden Isochema IGAsorp™ Model HAS-036-080. Approximately 20 mg of the sample was placed without any pre-treatment into a stainless-steel mesh sample holder. The measurement was run at 25° C. with changing the humidity in the order 40%-95%-0%-40% RH by steps of 5% RH and with maximum equilibration time of 24 h at each step. Gravimetric vapor sorption experiments for all the other hydrates disclosed herein were performed on a SPS 100n instrument from ProUmid GmbH & Co. KG. Typically, 10-20 mg of material were placed into tared aluminum pans without any pre-treatment. The measurements were again run at 25° C. and with changing the humidity in the order 20%-90%-0%-25% RH by steps of 5% and with maximum equilibration time of 24 h at each step. When plotting the data (see corresponding Figures), weight changes of one equivalent of water are indicated by dotted horizontal lines.

Row | SMILES | behaviour of water content with relative humidity (GVS) ([2]; 25° C.) | water content (GVS) in equivalents of water [2] | hydrate stoichiometry attributed from GVS water content / uptake ([2]; 25° C.) | also measured
1 | COc1ccccc1Oc1c(NS(=O)(=O)c2ccc(C)cn2)nc(-c2ccnc(-c3nnn[nH]3)c2)nc1OCCO [COMPOUND, 5-methyl-pyridine-2-sulfonic acid N-{6-(2-hydroxy-ethoxy)-5-(2-methoxy-phenoxy)-2-[2-(1H-tetrazol-5-yl)-pyridin-4-yl]-pyrimidin-4-yl}-amide disodium salt] | – | – | – | solubility in water [1]: about 25 g in 100 mL
2 | COc1ccccc1Oc1c([N-]S(=O)(=O)c2ccc(C)cn2)nc(-c2ccnc(-c3nnn[n-]3)c2)nc1OCCO.[Na+].[Na+] [form C] | stable with a slight increase between 5% and 95% RH | – | – | behaviour of water content below 5% RH (GVS) ([2]; 25° C., below 5% RH): decreases dramatically; water content at the starting point (GVS) ([2]; 40% RH, 25° C., dry basis): 14%
3 | COc1ccccc1Oc1c([N-]S(=O)(=O)c2ccc(C)cn2)nc(-c2ccnc(-c3nnn[n-]3)c2)nc1OCCO.[Na+].[Na+] [form E] | – | approx. 1 equivalents | – | water content at equilibrium (GVS scan) ([2]; 25° C.): 3%
4 | COc1ccccc1Oc1c([N-]S(=O)(=O)c2ccc(C)cn2)nc(-c2ccnc(-c3nnn[n-]3)c2)nc1OCCO.[Na+].[Na+] [form L] | – | 3 equivalents | – | final water content (GVS experiment) ([2]; dried at 0% RH, then re-humidified at 40% RH): about 8%
5 | COc1ccccc1Oc1c([N-]S(=O)(=O)c2ccc(C)cn2)nc(-c2ccnc(-c3nnn[n-]3)c2)nc1OCCO.[Na+].[Na+] [form N] | noticeable adsorption of excess water with increasing relative humidity | – | tetrahydrate | –
6 | COc1ccccc1Oc1c([N-]S(=O)(=O)c2ccc(C)cn2)nc(-c2ccnc(-c3nnn[n-]3)c2)nc1OCCO.[Na+].[Na+] [form P] | – | – | trihydrate | –
